From patent publication US20090215895A1, “Therapeutic and carrier molecules” (PEPLIN BIOLIPIDS PTY LTD, priority 2004, published 2009)

Experiments:
[1] = Delayed type hypersensitivity (DTH) to sheep erythrocytes; type: in vivo, BALB/c mice; settings: 10 mg/kg intraperitoneally prior to antigen challenge
Description: FIG. 14 is a representation showing (A) effect of MP3 on in vivo inflammatory response measured as delayed type hypersensitivity (DTH) to sheep erythrocytes and LPS-induced influx of neutrophils and mononuclear cells in the peritoneal cavity in BALB/c mice. In the DTH experiments mice were injected with sheep erythrocytes subcutaneously, challenged with the antigen in the hind foot pad 6 days later and the amount of foot pad swelling measured 48 hr later. One hour prior to challenge mice were given 10 mg/kg body weight of β-oxa fatty acid in 7% w/v, DMSO as vehicle intraperitoneally. […] The data, expressed as % of control, are presented as mean±SEM of 10 and 5 mice for DTH and peritoneal inflammation, respectively. […] The data, expressed as % of control, are presented as mean±SEM of ten mice per group and is representative of two experimental runs. […]
Effect of MP3 (β-oxa-23:4n-6) on the in vivo inflammatory response was measured as a delayed type hypersensitivity (DTH) reaction and LPS-induced influx of neutrophils and mononuclear cells in the peritoneal cavity in BALB/c mice. For DTH experiments, mice were injected subcutaneously with 100 μl of 10% hematocrit sheep erythrocytes, challenged with the antigen (25 μl of 40%) in the hind foot pad 6 days later and the degree of foot pad swelling measured 48 hr later (Ferrante et al, Clin. & Exp. Immunol. 38:70-76, 1979). […]

NFκB p65 = experiment: TNF-stimulated nuclear translocation of NFκB in HUVEC; type: cell-based, human; settings: 20 μmol/l
Description: FIG. 17 is a representation showing (A) the effect of MP3 (β-oxa 23:4n-6) and DHA on TNF-induced degradation of IκBα in HUVEC. Cells were pre-treated with the fatty acids (20 μmol/l) for 30 min and then stimulated with TNF (125 U/ml) for 10 min. After cell lysis the proteins were analyzed by Western blots using anti-IκBα antibodies. (B) The effects of β-oxa-23:4n-6 on TNF-induced activation of transcriptional factor, NFκB in HUVEC. Cells were pre-treated with β-oxa-23:4n-6 (20 μmol/l) for 30 min and then stimulated with TNF for 2 hr. After cell lysis, nuclear fractions were prepared, nuclear proteins separated by SDS PAGE (12% w/v gel), transferred to nitrocellulose and probed with an anti-NFκB p65 antibody (Santa Cruz). […] (C) The effect of β-oxa 23:4n-6 on TNF-stimulated activation of IKK. Cells were pre-treated with β-oxa 23:4n-6 (20 μmol/l) for 30 min and then stimulated with TNF for 5 min. After cell lysis IKK was immunoprecipitated with anti-IKKα antibody and kinase activity determined. […]
Proteins (50 μg) were separated by SDS PAGE (12% w/v gel), transferred to nitrocellulose and probed with an anti-NFκB p65 or anti-IκBα antibody (Santa Cruz Biotech, Santa Cruz, Calif.). Immunocomplexes were detected by enhanced chemiluminescence (Hii et al, 1998 supra).

CCCCC/C=C\C/C=C\C/C=C\C/C=C\CCCCOCC(=O)O [MP3, β-oxa-23:4n-6]
Delayed type hypersensitivity reaction (foot pad swelling) [1]: inhibited in ability to manifest a delayed type hypersensitivity reaction
Reduction of TNF-stimulated nuclear accumulation of NFκB (NFκB p65; 30 min, TNF 2 hr, mean±SEM, three experiments): 66±2%
Translocation of NFκB to the nucleus (NFκB p65; TNF): inhibition of translocation of NFκB to the nucleus
